Data set [1] concerns TTR. Description: TTR editing in primary cyno hepatocytes electroporated with Spy Cas9 protein and dgRNAs (Tables 10, 11). Type of data set: cell-based, cynomolgus monkey. Conditions: Table 10; primary cyno hepatocytes electroporated with Spy Cas9 protein (RNP) and dgRNAs. A digest of the protocol: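 Editing efficiency is the fraction of NGS reads carrying insertions, deletions or substitutions at the TTR target, measured on MiSeq amplicons from DNA harvested 24, 48 or 72 h post-delivery. Cas9–dgRNA ribonucleoprotein was nucleofected (P3 buffer, EX-147) into primary human or cyno hepatocytes.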

In data set [2] the test system is TTR. Description: TTR editing in primary human hepatocytes transfected with Spy Cas9 mRNA and sgRNAs (Table 13). It counts as cell-based. The note with it: primary human hepatocytes co-transfected with Spy Cas9 mRNA (SEQ ID NO:2) and sgRNAs, 12.5 nM. On the procedure: (§1) Primary liver hepatocytes. Primary human liver hepatocytes (PHH) and primary cynomolgus liver hepatocytes (PCH) (Gibco) were cultured per the manufacturer's protocol (Invitrogen, protocol 11.28.2012). In brief, the cells were thawed and resuspended in hepatocyte thawing medium with supplements (Gibco, Cat. CM7000) followed by centrifugation at 100 g for 10 minutes for human and 80 g for 4 minutes for cyno. The supernatant was discarded and the pelleted cells resuspended in hepatocyte plating medium plus supplement pack (Invitrogen, Cat. A1217601 and CM3000). Cells were counted and plated on Bio-coat collagen I coated 96-well plates (ThermoFisher, Cat. 877272) at a density of 33,000 cells/well for human or 60,000 cells/well for cyno (or 65,000 cells/well when assaying effects on TTR protein, described further below). Plated cells were allowed to settle and adhere for 6 or 24 hours in a tissue culture incubator at 37° C. and 5% CO2 atmosphere. After incubation cells were checked for monolayer formation and media was replaced with hepatocyte culture medium with serum-free supplement pack (Invitrogen, Cat. A1217601 and CM4000).
Lipofectamine RNAiMax (ThermoFisher, Cat. 13778150) based transfections were conducted as per the manufacturer's protocol. Cells were sequentially transfected with a lipoplex containing Spy Cas9 mRNA (100 ng), Lipofectamine RNAiMax (0.4 […]) and tracer RNA ([…]), Lipofectamine RNAiMax (0.4 μL/well) and OptiMem.
Transfected cells were harvested post-transfection at 24, 48, or 72 hours. The genomic DNA was extracted from each well of a 96-well plate using 50 μL/well BuccalAmp DNA Extraction solution (Epicentre, Cat. QE09050) per manufacturer's protocol. All DNA samples were subjected to PCR and subsequent NGS analyses, as described herein.
(§2) To quantitatively determine the efficiency of editing at the target location in the genome, sequencing was utilized to identify the presence of insertions and deletions introduced by gene editing.
(§3) Primers were designed around the target site within the gene of interest (e.g. TTR), and the genomic area of interest was amplified.
(§4) Additional PCR was performed per the manufacturer's protocols (Illumina) to add chemistry for sequencing. The amplicons were sequenced on an Illumina MiSeq instrument. The reads were aligned to a reference genome (e.g., the human reference genome (hg38), the cynomologus reference genome (mf5), the rat reference genome (rn6), or the mouse reference genome (mm10)) after eliminating those having low quality scores. The resulting files containing the reads were mapped to the reference genome (BAM files), where reads that overlapped the target region of interest were selected and the number of wild type reads versus the number of reads which contain an insertion, substitution, or deletion was calculated.
(§5) The editing percentage (e.g., the “editing efficiency” or “percent editing” or “indel frequency”) is defined as the total number of sequence reads with insertions/deletions (“indels”) or substitutions over the total number of sequence reads, including wild type.
Guides in modified sgRNA format targeting human and/or cyno TTR were delivered to primary human hepatocytes and primary cyno hepatocytes as described in Example 1. Percent editing was determined for crRNAs comprising each guide sequence across each cell type and the guide sequences were then rank ordered based on highest % edit. The screening data for the guide sequences in Table 2 in both cell lines are listed below (Table 12 through 15).

In data set [3] the test system is TTR. Description: TTR editing in primary cyno hepatocytes treated with LNP formulated Spy Cas9 mRNA (SEQ ID NO: 2) and sgRNAs (Tables 17, 18). It counts as cell-based, cynomolgus monkey. On the procedure: as §1
In general, the lipid nanoparticle components were dissolved in 100% ethanol with the lipid component of various molar ratios. The RNA cargos were dissolved in 25 mM citrate, 100 mM NaCl, pH 5.0, resulting in a concentration of RNA cargo of approximately 0.45 mg/mL. The LNPs were formulated with a lipid amine to RNA phosphate (N:P) molar ratio of about 4.5 or about 6, with the ratio of mRNA to gRNA at 1:1 by weight.
The LNPs were formed by microfluidic mixing of the lipid and RNA solutions using a Precision Nanosystems NanoAssemblr™ Benchtop Instrument, according to the manufacturer's protocol. A 2:1 ratio of aqueous to organic solvent was maintained during mixing using differential flow rates. After mixing, the LNPs were collected, diluted in water (approximately 1:1 v/v), held for 1 hour at room temperature, and further diluted with water (approximately 1:1 v/v) before final buffer exchange. The final buffer exchange into 50 mM Tris, 45 mM NaCl, 5% (w/v) sucrose, pH 7.5 (TSS) was completed with PD-10 desalting columns (GE). If required, formulations were concentrated by centrifugation with Amicon 100 kDa centrifugal filters (Millipore). The resulting mixture was then filtered using a 0.2 μm sterile filter. The final LNP was stored at −80° C. until further use.
as §2, §3, §4, §5
Lipid nanoparticle formulations of modified sgRNAs targeting human TTR and the cyno matched sgRNA sequences were tested on primary human hepatocytes and primary cyno hepatocytes in a dose response curve. Primary human and cyno hepatocytes were plated as described in Example 1. […]

Strand notation (5' to 3'): a small letter for the sugar, then the base; units joined by * are phosphorothioate-linked, units joined directly phosphodiester-linked; [ ] holds rarer units or linkages, { } end groups; capitals alone tell only the bases. m = 2'-O-methyl; r = 2'-OH (RNA)

As for “GGAGUAGGGGCUCAGCAGGG (tested as dual guide RNA, chemistry not given here) [CR003382]”, in the data set on TTR [1], the “Avg % Deletion” value turned out to be 2.33%, the “Avg % Edit” value turned out to be 10.86% and the “Avg % Insert” value was 8.54%.
Consider “GGCUGUCGUCACCAAUCCCA (tested as dual guide RNA, chemistry not given here) [CR003391]”, for which, in the data set on TTR [1], the “Avg % Deletion” value stood at 0.71%, the “Avg % Edit” value amounted to 36.44% and the “Avg % Insert” value is given as 35.73%.
The corresponding values for “GGGAUUGGUGACGACAGCCG (tested as dual guide RNA, chemistry not given here) [CR003390]” are 0.39%, 16.87% and 16.49%.
The corresponding values for “GUCACAGAAACACUCACCGU (tested as dual guide RNA, chemistry not given here) [CR005301]” are 0.42%, 46.76% and 46.34%.
The corresponding values for “GUGAGUCUGGAGAGCUGCAU (tested as dual guide RNA, chemistry not given here) [CR003360]” are 0.42%, 29.47% and 29.05%.
On to “UACUCACCUCUGCAUGCUCA (tested as dual guide RNA, chemistry not given here) [CR003372]”, for which, in the data set with TTR [1], the “Avg % Deletion” value amounted to 0.32%, the “Avg % Edit” value worked out at 2.15% and the “Avg % Insert” value stood at 1.83%.
The corresponding values for “UCUAGAACUUUGACCAUCAG (tested as dual guide RNA, chemistry not given here) [CR003345]” are 22.19%, 52.92% and 30.74%.
The corresponding values for “UGAAUCCAAGUGUCCUCUGA (tested as dual guide RNA, chemistry not given here) [CR005303]” are 0.56%, 59.28% and 58.72%.
The corresponding values for “UGGACUGGUAUUUGUGUCUG (tested as dual guide RNA, chemistry not given here) [CR003340]” are 4.80%, 12.53% and 7.72%.
With “UGUAGAAGGGAUAUACAAAG (tested as dual guide RNA, chemistry not given here) [CR003365]”, in the data set on TTR [1], the “Avg % Deletion” value is reported as 0.97%, the “Avg % Edit” value stood at 10.31% and the “Avg % Insert” value was determined as 9.33%.
The corresponding values for “UUUGACCAUCAGAGGACACU (tested as dual guide RNA, chemistry not given here) [CR003344]” are 1.91%, 35.72% and 33.81%.

B1: G000486: TTR sgRNA modified sequence, Human, SEQ ID No. 93; guide sequence of CR003339 (nucleic acid)
guide: mA*mC*mA*rCrArArArUrArCrCrArGrUrCrCrArGrCrArGrUrUrUrUrArGrAmGmCmUmAmGmAmAmAmUmAmGmCrArArGrUrUrArArArArUrArArGrGrCrUrArGrUrCrCrGrUrUrArUrCrAmAmCmUmUmGmAmAmAmAmAmGmUmGmGmCmAmCmCmGmAmGmUmCmGmGmUmGmCmU*mU*mU*mU
On to B1, for which, in the data set with TTR [2], the “Avg % Deletion” value amounted to 56.37%, the “Avg % Edit” value was determined as 59.13% and the “Avg % Insert” value was 2.82%.

B2: G000496: TTR sgRNA modified sequence, Human, SEQ ID No. 103; guide sequence of CR005304 (nucleic acid)
guide: mG*mG*mC*rCrGrUrGrCrArUrGrUrGrUrUrCrArGrArArGrUrUrUrUrArGrAmGmCmUmAmGmAmAmAmUmAmGmCrArArGrUrUrArArArArUrArArGrGrCrUrArGrUrCrCrGrUrUrArUrCrAmAmCmUmUmGmAmAmAmAmAmGmUmGmGmCmAmCmCmGmAmGmUmCmGmGmUmGmCmU*mU*mU*mU
B2: in the data set with TTR [2], the “Avg % Deletion” value amounted to 52.25%, the “Avg % Edit” value was found to be 63.30% and the “Avg % Insert” value is on record as 11.08%.

B3: G000487: TTR sgRNA modified sequence, Human, SEQ ID No. 94; guide sequence of CR003357 (nucleic acid)
guide: mU*mU*mC*rUrUrUrGrGrCrArArCrUrUrArCrCrCrArGrGrUrUrUrUrArGrAmGmCmUmAmGmAmAmAmUmAmGmCrArArGrUrUrArArArArUrArArGrGrCrUrArGrUrCrCrGrUrUrArUrCrAmAmCmUmUmGmAmAmAmAmAmGmUmGmGmCmAmCmCmGmAmGmUmCmGmGmUmGmCmU*mU*mU*mU
As for B3, in the data set with TTR [2], the “Avg % Deletion” value turned out to be 2.27%, the “Avg % Edit” value was determined as 49.57% and the “Avg % Insert” value is 47.38%.

B4: G000494: TTR sgRNA modified sequence, Human, SEQ ID No. 101; guide sequence of CR003360 (nucleic acid)
guide: mG*mU*mG*rArGrUrCrUrGrGrArGrArGrCrUrGrCrArUrGrUrUrUrUrArGrAmGmCmUmAmGmAmAmAmUmAmGmCrArArGrUrUrArArArArUrArArGrGrCrUrArGrUrCrCrGrUrUrArUrCrAmAmCmUmUmGmAmAmAmAmAmGmUmGmGmCmAmCmCmGmAmGmUmCmGmGmUmGmCmU*mU*mU*mU
On to B4, for which, in the data set with TTR [2], the “Avg % Deletion” value was found to be 1.07%, the “Avg % Edit” value is reported as 26.22% and the “Avg % Insert” value is reported as 25.17%. Moreover, the “12.5 ng mRNA, 3.9 nM sgRNA Avg % Edit” value with TTR [3] (Table 17, LNP formulated Spy Cas9 mRNA (SEQ ID NO: 2) and sgRNA, 12.5 ng mRNA, 3.9 nM sgRNA, 72 hours) was determined as 14.30%.

B5: G000488: TTR sgRNA modified sequence, Human, SEQ ID No. 95; guide sequence of CR003346 (nucleic acid)
guide: mA*mA*mA*rGrUrUrCrUrArGrArUrGrCrUrGrUrCrCrGrGrUrUrUrUrArGrAmGmCmUmAmGmAmAmAmUmAmGmCrArArGrUrUrArArArArUrArArGrGrCrUrArGrUrCrCrGrUrUrArUrCrAmAmCmUmUmGmAmAmAmAmAmGmUmGmGmCmAmCmCmGmAmGmUmCmGmGmUmGmCmU*mU*mU*mU
For B5, in the data set with TTR [2], the “Avg % Deletion” value is 37.48%, the “Avg % Edit” value is recorded as 49.40% and the “Avg % Insert” value amounted to 11.98%.

B6: G000502: TTR Cyno specific sgRNA modified sequence, SEQ ID No. 114; guide sequence of CR000689; cross homologous between mouse and cyno (nucleic acid)
guide: mA*mC*mA*rCrArArArUrArCrCrArGrUrCrCrArGrCrGrGrUrUrUrUrArGrAmGmCmUmAmGmAmAmAmUmAmGmCrArArGrUrUrArArArArUrArArGrGrCrUrArGrUrCrCrGrUrUrArUrCrAmAmCmUmUmGmAmAmAmAmAmGmUmGmGmCmAmCmCmGmAmGmUmCmGmGmUmGmCmU*mU*mU*mU
B6: the “12.5 ng mRNA, 3.9 nM sgRNA % Edit” value with TTR [3] (LNP formulated Spy Cas9 mRNA (SEQ ID NO: 2) and cyno matched sgRNAs, 72 hours post treatment) turned out to be 80.70%.

Source of the values: patent US11795460B2, “Compositions and methods for TTR gene editing and treating ATTR amyloidosis” (Intellia Therapeutics, Inc., priority 2017, dated 2023).
